Patent publication EP4772178A1, “ANTI-TUMOR USE OF ACT001 COMPOSITION” (Accendatech Co. Ltd., priority 2023, dated 2025)
“And” between values parts separate entries of the source, which are not always exact repeats. Equal values may be shown once.

What was measured:
[1] = ACT001-CN-002 Phase II clinical trial, safety assessment (peripheral blood lymphopenia)
Protocol: GBM patients who relapsed after standard treatment were randomly assigned to three cohorts of an ACT001-CN-002 Phase II clinical trial: • Cohort A: ACT001 monotherapy (400 mg, BID); • Cohort B: ACT001 and TMZ (temozolomide) were administered in combination at doses of 400mg, BID (ACT001) and 200 mg/m^2/day (TMZ, administered on days one to five of each 28-day course of treatment), respectively; • Cohort C: CCNU monotherapy (lomustine, 100-130 mg/m^2/dose, once every six weeks, 4 doses at most) or TMZ monotherapy (the dosage level and the route of administration were the same as those for cohort B).
The trial endpoints were post-dose progression-free survival (iRANO criteria), one-year survival rate, and safety assessment: the number of times each safety event occurred (e.g., the incidence of peripheral blood lymphopenia). The exploratory endpoints included changes in the peripheral blood suppressive Treg lymphocyte ratio.

GBM = assay: ACT001-CN-002 Phase II clinical trial, efficacy (best response, iRANO criteria); type: in vivo, patients; conditions: one line per patient; duration of stable disease
[2] = tested on: peripheral blood suppressive Treg lymphocytes; assay: ACT001-CN-002 Phase II clinical trial, exploratory endpoint: peripheral blood Treg ratio; type: in vivo, patients; conditions: one line per patient; for Peripheral blood Treg ratio (before treatment): first figure of the cell; for Peripheral blood Treg ratio (after treatment): second figure of the cell

| Structure (SMILES) | Grade 3 or higher lymphopenia ([1]; human, in vivo) | Best response time (months) (GBM) | Peripheral blood Treg ratio (before treatment) [2] | Peripheral blood Treg ratio (after treatment) [2] | Grade 3 or higher lymphopenia ([1]; one line per patient) |
| --- | --- | --- | --- | --- | --- |
| CC1=C2CC[C@@](C)(O)[C@@H]2[C@H]2OC(=O)[C@@H](CN(C)C)[C@@H]2CC1 [ACT001] | No | 9 months and 4 months | 3.2 and 8.7 and 5.9 and 6.9 and 2.4 | 8.4 and 6.5 and 6.7 and 1.8 and 9.4 |  |
| O=NN(CCCl)C(=O)NC1CCCCC1 [CCNU, lomustine] |  | 6 months | 6.6 and 5.6 and 11.4 | 12.4 and 7.3 and 9.5 | No (2×) and Yes |
| Cn1nnc2c(C(N)=O)ncn2c1=O [TMZ, temozolomide] |  | 7 months and 4 months | 4.3 and 7.1 | 14.3 and 7.5 |  |
